Assay results from patent US4293713A, “Novel 1,1,3,5-substituted biuret compound and a pharmaceutical composition containing the same” (priority 1979, dated 1981).
Where two headings read alike, the source gives them in different places.

Tests used:
ddy strain of male mice [1] = test: Acute toxicity (oral, 7 days observation); format: in vivo; conditions: oral, mice, 7 days
Description: (§1) Next, several tests for determining the pharmacological properties, in that acute toxicity, anti-pyretic activity, analgesic activity and anti-inflammatory activity of the present 1,1,3,5-substituted biuret compounds of the formula (1) were conducted and the test results are shown in Table (2). In the tests, each compounds to be tested was used as a suspension in 0.25% carboxymethylcellulose solution. Methods for testing are explained as follows:
The ddy strain of male mice (body weight, 20-25 g) were used as test animals. The mice were fasted overnight and the compound to be tested was administered orally. […] The lethal dose (mg/kg, body weight) of the test compound was determined in connection with the death number of mice/the number of mice tested. In Table 2, the values indicated with Δ marks are 50% lethal dose, LD50 (mg/kg, body weight).

[2] = tested on: Wistar strain of male rats; test: Anti-pyretic activity (dry-yeast induced fever); format: in vivo, rat (Wistar strain; conditions: oral, up to 4 hours after administration, dose not given
Description: as §1
According to the method reported by Tanabe [Folia Pharmacologia Japonica, Vol. 73, pp. 803 (1977)], the Wistar strain of male rats (150-180 g body weight) were used as test animals. The rats were fasted overnight, and 1 ml/100 g (body weight) of 10% dry-yeast suspension were subcutaneously injected on the back of the rats. Five hours after the injection, the test compound was administered orally, then the body temperature of the rat was measured at time sequences. Anti-pyretic activity of the test compound was determined as the FI (febril index) by integrating pyrogenetic curve up to 4 hours after the administration of the test compound with time, and indicated as inhibitory ratio (%) shown by the following formula, [formula]

ddy strain of male mice [3] = test: Analgesic activity, acetic acid-induced stretching method; format: in vivo, mouse (ddy strain; conditions: Mus musculus
Description: as §1
According to the method reported by Koster et al., [Fed. Proc., Vol. 18, pp. 412 (1959)], the ddy strain of male mice (body weight, 20-25 g) were used as test animals. The mice were fasted overnight, 100 mg/kg body weight of the test compound was administered orally, then 1 hour after the administration, 0.2 ml of 0.7% acetic acid solution was injected intraperitoneally. The acetic acid-induced stretching symptom of mouse was observed. Analgesic activity of the test compound was calculated as the inhibitory ratio (%). In Table 2, the values in Parentheses show the data obtained from the test by using the dosage other than 100 mg/kg body weight. Further, the values indicated with Δ marks show 50% effective dose, ED50 (mg/kg body weight).

ddy strain of male mice [4] = test: Analgesic activity, Haffner method; format: in vivo, mouse (ddy strain; conditions: with threshold morphine hydrochloride s.c.
Description: as §1
According to the modified method reported by Fujimura et al., [Bulletin of the Institute for Chemical Research, Kyoto University, No. 25, pp. 36 (1951)], the ddy strain of male mice (body weight, 20-25 g) were used as test animals. The mice were fasted overnight, 100 mg/kg body weight of the test compound was administered orally, then 45 minutes after the administration, the threshold amount (1.5-2.5 mg/kg body weight) of morphine hydrochloride was injected subcutaneously. Then 1-hour pain reaction of the mouse caused by a clamp was observed. Analgesic activity of the test compound was calculated as the inhibitory ratio (%). In Table 2, the values in parentheses show the data obtained from the test by using the dosage other than 100 mg/kg body weight. Further, the values indicated with Δ marks show 50% effective dose, ED50 (mg/kg body weight).

[5] = tested on: Wistar strain of male rats; test: Anti-inflammatory activity, acute carrageenin-induced inflammatory test; format: in vivo, rat (Wistar strain; conditions: Rattus norvegicus
Description: as §1
According to the method of acute carrageenin-induced inflammatory test [Folia Pharmacologia Japonica, Vol. 56, pp. 575 (1960)], the Wistar strain of male rats (body weight, 150-180 g) were used as test animals. The rats were fasted overnight, 100 mg/kg body weight of the test compound was administered orally, then 1 hour after the administration, 0.1 ml of 1% carrageenin solution, as the inflammation inducing agent, was injected subcutaneously to the hindpaw of the rat and the volume of the hindpaw was measured at time sequences. Anti-inflammatory activity of the test compound was calculated as inflammation inhibitory ratio (%) at 3 hours after the injection of the inflammation inducing agent.

[6] = po, read-out: Analgesic activity, acetic acid-induced stretching method, inhibitory ratio
[7] = 100 mg/kg oral, mice, read-out: Analgesic activity, acetic acid-induced stretching method, inhibitory ratio
[8] = po, 3 h, read-out: Anti-inflammatory activity, inflammation inhibitory ratio
[9] = po, 2 h, read-out: Anti-inflammatory activity, inflammation inhibitory ratio (2 hours value)

Row | SMILES | Acute toxicity, death number of mice/number of mice tested (ddy strain of male mice [1]; 2000 mg/kg) | Anti-pyretic activity, inhibitory ratio of febril index (FI) [2] | inhibition in vivo at 100 mg/kg (ddy strain of male mice [3]; [6]) | Analgesic activity, Haffner method, inhibitory ratio (ddy strain of male mice [4]; 200 mg/kg oral) | Acute toxicity, death number of mice/number of mice tested (ddy strain of male mice [1]; 500 mg/kg) | inhibition in vivo at 100 mg/kg (ddy strain of male mice [3]; [7]) | Analgesic activity, Haffner method, inhibitory ratio (ddy strain of male mice [4]; 100 mg/kg oral) | inhibition in vivo at 100 mg/kg [5, 8] | Acute toxicity, death number of mice/number of mice tested (ddy strain of male mice [1]; 1000 mg/kg) | ED50 (ddy strain of male mice [3]; oral, mice, range in parentheses, read-out: Analgesic activity, acetic acid-induced stretching method, 50% effective dose, ED50 (values with Δ marks)) | inhibition in vivo at 100 mg/kg ([5]; 100 mg/kg oral, rats, 2 hours value, read-out: Anti-inflammatory activity, inflammation inhibitory ratio (2 hours value)) | inhibition in vivo at 100 mg/kg [5, 9] | Analgesic activity, Haffner method, 50% effective dose, ED50 (values with Δ marks) (ddy strain of male mice [4]; oral, range in parentheses) | inhibition in vivo at 60 mg/kg (ddy strain of male mice [3]; 60 mg/kg oral, mice, read-out: Analgesic activity, acetic acid-induced stretching method, inhibitory ratio)
1 | CCCN(C(=O)Nc1ccccc1)C(=O)N(C)C [compound 31, 1,1-Dimethyl-3-n-propyl-5-phenylbiuret] | 0/4 | 12% | 37.5% | 62.5% | – | – | – | – | – | – | – | – | – | –
2 | CN(C)C(=O)N(C)C(=O)Nc1ccc([N+](=O)[O-])cc1 [compound 15, 1,1,3-Trimethyl-5-(4-nitrophenyl)biuret] | – | 26% | – | – | 2/4 | 100% | 50% | 32% | – | – | – | – | – | –
3 | COc1cc(NC(=O)N(C)C(=O)N(C)C)cc(OC)c1OC [Compound No. 19, 1,1,3-Trimethyl-5-(3,4,5-trimethoxyphenyl)biuret] | – | 23% | – | – | 0/4 | – | 62.5% | 30% | 2/4 | 38 mg/kg | – | – | – | –
4 | CN(C)C(=O)N(C)C(=O)Nc1ccc(Cl)cc1Cl [compound 8, 1,1,3-Trimethyl-5-(2,4-dichlorophenyl)biruet] | 3/4 | 42% | 50% | – | – | – | 75% | – | 0/4 | – | – | – | – | –
5 | CCCCN(C)C(=O)N(C)C(=O)Nc1ccccc1 [compound 35, 1-n-Butyl-1,3-dimethyl-5-phenylbiuret] | 3/4 | 35% | 37.5% | – | – | – | 25% | – | 0/4 | – | – | – | – | –
6 | COc1ccccc1NC(=O)N(C)C(=O)N(C)C [compound 16, 1,1,3-Trimethyl-5-(2-methoxyphenyl)biuret] | 2/4 | 13% | 37.5% | – | – | – | 25% | – | 0/4 | – | 35% | – | – | –
7 | CN(C)C(=O)N(C)C(=O)Nc1ccc(Cl)c(Cl)c1 [compound 10, 1,1,3-Trimethyl-5-(3,4-dichlorophenyl)biuret] | 3/4 | 43% | 50% | – | – | – | 62.5% | – | 1/4 | – | – | – | – | –
8 | CCN(C(=O)Nc1ccccc1)C(=O)N(C)C [compound 30, 1,1-Dimethyl-3-ethyl-5-phenylbiuret] | 3/4 | 12% | 62.5% | – | – | – | – | 23% | 0/4 | – | – | – | – | –
9 | CC(=O)c1ccc(NC(=O)N(C)C(=O)N(C)C)cc1 [compound 27, 1,1,3-Trimethyl-5-(4-acetylphenyl)biuret] | – | 36% | – | – | 0/4 | 62.5% | 37.5% | – | 4/4 | – | – | 31% | – | –
10 | CSc1ccc(NC(=O)N(C)C(=O)N(C)C)cc1 [compound 28, 1,1,3-Trimethyl-5-(4-methylthiophenyl)biuret] | 4/4 | – | 50% | – | – | – | – | – | 0/4 | – | – | – | – | –
11 | CN(C)C(=O)N(C)C(=O)Nc1c(F)c(F)cc(F)c1F [compound 4, 1,1,3-Trimethyl-5-(2,3,5,6-tetrafluorophenyl)-biuret] | – | 33% | 87.5% | – | 0/4 | – | 50% | 24% | 4/4 | – | – | – | – | –
12 | CN(C)C(=O)N(C)C(=O)Nc1cccc(C(F)(F)F)c1 [compound 13, 1,1,3-Trimethyl-5-(3-trifluoromethylphenyl)biuret] | 4/4 | 62% | 37.5% | – | – | – | – | – | 0/4 | – | – | 32% | 64(37-112) mg/kg | –
13 | Cc1cccc(NC(=O)N(C)C(=O)N(C)C)c1C [compound 23, 1,1,3-Trimethyl-5-(2,3-dimethylphenyl)biuret] | 4/4 | 40% | – | – | – | 50% | 25% | – | 1/4 | – | – | – | – | –
14 | Cc1cccc(NC(=O)N(C)C(=O)N(C)C)c1 [compound 21, 1,1,3-Trimethyl-5-(3-methylphenyl)biuret] | 2/4 | 31% | 75% | – | – | – | 37.5% | 28% | – | – | – | – | – | –
15 | COc1ccc(NC(=O)N(C)C(=O)N(C)C)cc1OC [compound 18, 1,1,3-Trimethyl-5-(3,4-dimethoxyphenyl)biuret] | 4/4 | 18% | 75% | – | – | – | 62.5% | – | 0/4 | – | – | – | – | –
16 | Cc1ccc(NC(=O)N(C)C(=O)N(C)C)cc1C [Compound No. 25, 1,1,3-Trimethyl-5-(3,4-dimethylphenyl)biuret] | 1/4 | 31% | – | – | – | – | – | – | – | – | – | – | – | 87.5%
17 | CCCCN(C(=O)Nc1ccccc1)C(=O)N(C)C [compound 32, 1,1-Dimethyl-3-n-butyl-5-phenylbiuret] | 3/4 | 18% | 37.5% | – | – | – | 31% | – | 0/4 | – | – | – | – | –
18 | Cc1c(Cl)cccc1NC(=O)N(C)C(=O)N(C)C [compound 26, 1,1,3-Trimethyl-5-(2-methyl-3-chlorophenyl)biuret] | 4/4 | 45% | 75% | – | – | – | 25% | – | 1/4 | – | – | – | – | –
